pEC50: −log10 of the molar value.
Columns and labels:
RSV A2 = test: RSV plaque reduction assay; assay type: cell-based, RSV (RSV A2 ECACC, 0709161v); details: human respiratory syncytial virus, HepG2, 48 h, Hep-G2 cells, RSV A2, 2 days; mean of at least two experiments
Description: Compounds were subjected to RSV plaque reduction assays according to the following protocol.
Hep-G2 cells (ECACC, 85011430) were passaged in flasks and seeded in 24-well plates in DMEM containing antibiotics and supplemented with 10% FBS. During inoculation and subsequent incubation, cells were cultured in DMEM containing 2% FBS. 100 plaque forming unit/well of RSV (RSV A2 ECACC, 0709161v) was mixed with eight serial dilutions of compound. Subsequently, 100 µL of the virus/compound mixtures was added to confluent Hep-G2 cell monolayers. The cells and virus/compound mixtures were incubated at 37° C. in a humidified 5% CO2 incubator for 2 h prior to removal of the inoculum and addition of 1 mL of overlay (DMEM containing 2% FBS and 0.8% CMC) containing compound dilutions. The cells and were incubated at 37° C. in a humidified 5% CO2 incubator for 2 days.
Cells were washed with PBS before adding 75%/25% v/v EtOH/MeOH, for 3 min. Fix ative was removed and plates were washed with PBS. A pre-titrated amount of the primary antibody was added in 200 µL PBS/2% milk powder, and plates incubated for 90 min at 37° C. The plates were washed 3 times with PBS/0.05% Tween20 before addition of rabbit anti-goat horse radish peroxidase in 200 µL PBS/2% milk powder, and incubated for 1 h at 37° C. Following three wash steps with PBS/0.05% Tween20, 200 µL ready-to-use TrueBlue was added and plates were incubated at rt for 10-15 min before washing with water. After removal of water, plates were air-dried in the dark.
(§1) Plates were scanned and analysed using the Immunospot S6 Macro analyser, which is equipped with BioSpot analysis software for counting immunostained plaques (virospots). Plaque counts were used to calculate % infection relative to the mean of the plaque count in the virus control wells for RSV. […] Plaque EC50 and cell toxicity CC50 values are a mean of at least two experiments and figures are rounded to whole units.

Cell cytotoxicity CC50 = assay type: cell-based; details: human; mean of at least two experiments
From the text: as §1

Row | Compound | pEC50 (RSV A2) | CC50 (Cell cytotoxicity CC50) [nM]
1 | CC(C)Nc1ccc(-c2nn3c(c2C(=O)N[C@H]2N=C(c4ccccc4)c4cccc(F)c4NC2=O)O[C@H]2CC[C@@H]3C2)cn1 (single isomer, unassigned) [Example 31-2, (1R*,8S*)-N-[(3S)-9-fluoro-2-oxo-5-phenyl-2,3-dihydro-1H-1,4-benzodiazepin-3-yl]-4-{6-[(propan-2-yl)amino]pyridin-3-yl}-7-oxa-2,3-diazatricyclo[6.2.1.02,6]undeca-3,5-diene-5-carboxamide] | 7.03 | > 25000
2 | O=C(NC1N=C(c2ccccc2)c2cccc(F)c2NC1=O)c1c(-c2ccccc2F)nn2c1OCC(N1CCOCC1)CC2 (stereo in doubt) [Example 29, 2-(2-Fluorophenyl)-6-morpholin-4-yl-N-[(3R)-9-fluoro-2-oxo-5-phenyl-1,3-dihydro-1,4-benzodiazepin-3-yl]-5,6,7,8-tetrahydropyrazolo[5,1-b][1,3]oxazepine-3-carboxamide] | 6.81 | > 25000
3 | O=C(N[C@H]1N=C(c2ccccc2)c2ccccc2NC1=O)c1c(-c2ccccc2)nn2c1OCCCC2 [Example 1, N-[(3S)-2-oxo-5-phenyl-1,3-dihydro-1,4-benzodiazepin-3-yl]-2-phenyl-5,6,7,8-tetrahydropyrazolo[5,1-b][1,3]oxazepine-3-carboxamide] | 7.10 | > 25000
4 | Cc1cncc(-c2nn3c(c2C(=O)N[C@H]2N=C(c4ccccc4)c4ccccc4NC2=O)OCCCC3)c1 [Example 3, 2-(5-Methylpyridin-3-yl)-N-[(3S)-2-oxo-5-phenyl-1,3-dihydro-1,4-benzodiazepin-3-yl]-5,6,7,8-tetrahydropyrazolo[5,1-b][1,3]oxazepine-3-carboxamide] | 6.59 | > 25000
5 | Cc1cncc(-c2nn3c(c2C(=O)N[C@H]2N=C(c4ccccc4)c4cccc(F)c4NC2=O)OCCCC3)c1 [Example 4, N-[(3S)-9-Fluoro-2-oxo-5-phenyl-1,3-dihydro-1,4-benzodiazepin-3-yl]-2-(5-methylpyridin-3-yl)-5,6,7,8-tetrahydropyrazolo[5,1-b][1,3]oxazepine-3-carboxamide] | 6.66 | > 25000
6 | CC1(C)CCCn2nc(-c3ccccc3F)c(C(=O)N[C@H]3N=C(c4ccccc4)c4ccccc4NC3=O)c2O1 [Example 5, 2-(2-Fluorophenyl)-5,5-dimethyl-N-[(3S)-2-oxo-5-phenyl-1,3-dihydro-1,4-benzodiazepin-3-yl]-7,8-dihydro-6H-pyrazolo[5,1-b][1,3]oxazepine-3-carboxamide] | 7.04 | > 25000
7 | CC1(C)CCCn2nc(-c3ccccc3F)c(C(=O)N[C@H]3N=C(c4ccccc4)c4cccc(F)c4NC3=O)c2O1 [Example 6, N-[(3S)-9-Fluoro-2-oxo-5-phenyl-1,3-dihydro-1,4-benzodiazepin-3-yl]-2-(2-fluorophenyl)-5,5-dimethyl-7,8-dihydro-6H-pyrazolo[5,1-b][1,3]oxazepine-3-carboxamide] | 7.11 | > 25000
8 | O=C(N[C@H]1N=C(c2ccccc2)c2ccccc2NC1=O)c1c(-c2ccccc2F)nn2c1OCCCC2 [Example 7, 2-(2-Fluorophenyl)-N-[(3S)-2-oxo-5-phenyl-1,3-dihydro-1,4-benzodiazepin-3-yl]-5,6,7,8-tetrahydropyrazolo[5,1-b][1,3]oxazepine-3-carboxamide] | 7.28 | > 25000
9 | O=C(N[C@H]1N=C(c2ccccc2)c2cccc(F)c2NC1=O)c1c(-c2ccccc2)nn2c1OCCCC2 [Example 8, N-[(3S)-9-Fluoro-2-oxo-5-phenyl-1,3-dihydro-1,4-benzodiazepin-3-yl]-2-phenyl-5,6,7,8-tetrahydropyrazolo[5,1-b][1,3]oxazepine-3-carboxamide] | 7.23 | > 16700
10 | O=C(N[C@H]1N=C(c2ccccc2)c2ccccc2NC1=O)c1c(-c2ccc(NC3CC3)nc2F)nn2c1OCCCC2 [Example 9, 2-[6-(Cyclopropylamino)-2-fluoropyridin-3-yl]-N-[(3S)-2-oxo-5-phenyl-1,3-dihydro-1,4-benzodiazepin-3-yl]-5,6,7,8-tetrahydropyrazolo[5,1-b][1,3]oxazepine-3-carboxamide] | 7.62 | > 25000
11 | CCNc1ccc(-c2nn3c(c2C(=O)N[C@H]2N=C(c4ccccc4)c4ccccc4NC2=O)OC(C)CCC3)c(F)n1 (stereo partly drawn) [Example 10, 2-[6-(Ethylamino)-2-fluoropyridin-3-yl]-5-methyl-N-[(3S)-2-oxo-5-phenyl-1,3-dihydro-1,4-benzodiazepin-3-yl]-5,6,7,8-tetrahydropyrazolo[5,1-b][1,3]oxazepine-3-carboxamide] | 7.51 | > 25000
12 | CCNc1ccc(-c2nn3c(c2C(=O)N[C@H]2N=C(c4ccccc4)c4cccc(F)c4NC2=O)OC(C)CCC3)c(F)n1 (stereo partly drawn) [Example 11, 2-[6-(Ethylamino)-2-fluoropyridin-3-yl]-N-[(3S)-9-fluoro-2-oxo-5-phenyl-1,3-dihydro-1,4-benzodiazepin-3-yl]-5-methyl-5,6,7,8-tetrahydropyrazolo[5,1-b][1,3]oxazepine-3-carboxamide] | 7.74 | > 25000
13 | CC(C)Nc1ccc(-c2nn3c(c2C(=O)N[C@H]2N=C(c4ccccc4)c4ccccc4NC2=O)OC(C)CCC3)c(F)n1 (stereo partly drawn) [Example 12, 2-[2-Fluoro-6-(propan-2-ylamino)pyridin-3-yl]-5-methyl-N-[(3S)-2-oxo-5-phenyl-1,3-dihydro-1,4-benzodiazepin-3-yl]-5,6,7,8-tetrahydropyrazolo[5,1-b][1,3]oxazepine-3-carboxamide] | 7.47 | > 25000
14 | CC(C)Nc1ccc(-c2nn3c(c2C(=O)N[C@H]2N=C(c4ccccc4)c4cccc(F)c4NC2=O)OC(C)CCC3)c(F)n1 (stereo partly drawn) [Example 13, N-[(3S)-9-fluoro-2-oxo-5-phenyl-1,3-dihydro-1,4-benzodiazepin-3-yl]-2-[2-fluoro-6-(propan-2-ylamino)pyridin-3-yl]-5-methyl-5,6,7,8-tetrahydropyrazolo[5,1-b][1,3]oxazepine-3-carboxamide] | 7.47 | > 25000
15 | CC1CCCOc2c(C(=O)N[C@H]3N=C(c4ccccc4)c4ccccc4NC3=O)c(-c3ccccc3F)nn21 (stereo partly drawn) [Example 14, 2-(2-Fluorophenyl)-8-methyl-N-[(3S)-2-oxo-5-phenyl-1,3-dihydro-1,4-benzodiazepin-3-yl]-5,6,7,8-tetrahydropyrazolo[5,1-b][1,3]oxazepine-3-carboxamide] | 7.17 | > 25000
16 | CC1CCCOc2c(C(=O)N[C@H]3N=C(c4ccccc4)c4cccc(F)c4NC3=O)c(-c3ccccc3F)nn21 (stereo partly drawn) [Example 15, N-[(3S)-9-fluoro-2-oxo-5-phenyl-1,3-dihydro-1,4-benzodiazepin-3-yl]-2-(2-fluorophenyl)-8-methyl-5,6,7,8-tetrahydropyrazolo[5,1-b][1,3]oxazepine-3-carboxamide] | 7.19 | > 25000
17 | CC1CCCn2nc(-c3ccc(F)cc3F)c(C(=O)N[C@H]3N=C(c4ccccc4)c4cccc(F)c4NC3=O)c2O1 (stereo partly drawn) [Example 17, 2-(2,4-Difluorophenyl)-N-[(3S)-9-fluoro-2-oxo-5-phenyl-1,3-dihydro-1,4-benzodiazepin-3-yl]-5-methyl-5,6,7,8-tetrahydropyrazolo[5,1-b][1,3]oxazepine-3-carboxamide] | 7.57 | > 25000
